Source: article PMC4172049 (Drug Design, Development and Therapy, 2014)

Target: T1, Human recombinant sPLA2-V (Homo sapiens, UniProt P39877)
T1 sequence (P39877 21-138): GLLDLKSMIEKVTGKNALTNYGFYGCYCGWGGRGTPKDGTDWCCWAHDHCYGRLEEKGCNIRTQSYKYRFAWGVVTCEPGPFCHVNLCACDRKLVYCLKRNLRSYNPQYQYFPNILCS
Assay: sPLA2-V activity assay

IC50: 650 ± 150 nM
SMILES: C[C@@H]1C[C@H]2[C@@H]3CCC4=CC(=O)C=C[C@]4(C)[C@@]3(F)[C@@H](O)C[C@]2(C)[C@@]1(O)C(=O)CO [Dexamethasone]
